Reference: patent publication US9206209B2, “Nucleotide analogue, method of synthesis of nucleotide analogue, use of nucleotide analogue, antiviral pro-nucleotide, pharmaceutical composition” (priority 2010, dated 2015)
Like-named read-outs stand apart in the source and are kept apart here. One block for each compound: values may come before it.

Key:
CEM-T4 cells [1] = settings: cited from earlier work
HIV [2] = system: HIV; set-up: SI50: unit not given beside the values; settings: *Estimated in cells CEM-T4; Baba M. et al. 1987; cited from earlier work
CEM-T4 cells [3] = test: Cytotoxicity determination (MTT test, 7 days); format: cell-based
Procedure: (§1) Cytotoxicity and anti-HIV activity of the compounds (XVIa-c) described above were examined in CEM-T4 cells according procedures described below.
(§2) Cytotoxicity determination—CC50 and CC90 parameters—For determination of compounds (XVIa-c) cytotoxicity CEM-T4 and CEM-A were cultured in standard conditions (37° C., 5% CO2) on 96 wells culture plates in media RPMI/FCS 10% (v/v). Experiments were carried out in media contained tested compounds in concentrations of appropriate range. Cultures in neat medium (RPMI, 10% FCS) were used as a control ones. Viability of cells were determined after 7 days using MTT test in which to each well of culture plate were added 10 μL of MTT solution (5 mg/mL) and cultures were incubated 3 hours in temperature 37° C. After centrifugation supernatant was removed and DMSO was added to lyse the cells and to dissolve crystals of farmazan. Measurement of colour intensity was done using a plate reader (λ560 nm).
(§3) Cytotoxicity calculation—reference absorbancy (K) was an average of measurements for five well of culture plate and accounts for 100% CEM-T4 or CEM-A cells viability. In each case absorbancy for cells cultured in media enriched with tested compounds was calculated as average of at least three measurements.
(§4) Cells viability (P) were calculated according to formula:
(§5) [formula] in which P—viability of cells, K—reference absorbancy, A—absorbancy for cells cultured in media enriched with tested compounds, T—absorbancy for neat medium (RPMI/10% FBS). On the basis of calculations graph showing dependence of viability and concentrations of tested compounds values of CC50 and CC90 were determined

HIV [4] = test: Anti-HIV activity (inhibition of HIV replication, viral protein p24) in CEM-T4 cells; format: cell-based; settings: for EC90: 90% inhibition of HIV replication; for SI50: selectivity index, CC50 vs EC50, CEM-T4 cells
Procedure: as §1
Anti HIV activity (EC50 and EC90)—parameter EC50 is defined as concentration of compounds in which replication of HIV is inhibited by 50% and parameter EC90 is defined as concentration of compounds in which replication of HIV is inhibited by 90%. To determine these parameters CEM-T4 cells were preincubated 24 hours in standard conditions (37° C., 5% CO2) in standard medium [RPMI, FCS 10% (v/v)] enriched with tested compounds in concentrations in range 0.001-20 μM. Incubations were performed with 96 flat bottom wells culture plates. In each well 20000 cells were suspended in solution of tested compound (200 μL). For each concentration four cultures were done. As a reference, media containing AZT in concentration 1.25 μM, 2.5 μM, 5.0 μM, 10.0 μM, 20 μM were used. As a positive control of maximal replication of HIV, culture in neat standard medium [RPMI/FCS 10% (v/v)] was used. After 24 hours of incubation in medium enriched with tested compound and AZT, cells were inoculated with known amount of HIV and cultivation was continued 8 days and after this the amount of viral protein p24 (marker of HIV replication) was measured. Inhibition of HIV replication is presented as percentage of p24 content in culture performed with media containing tested compound and assuming that amount of p24 measured in control correspond 100% of HIV replication. The examinations of each tested substance for each concentration were run in triplicate.

[5] = Cytotoxicity determination (MTT test, 7 days); format: cell-based; settings: human, CEM-T4 cells
Procedure: as §1, §2, §3, §4, §5

HIV [6] = system: HIV; set-up: SI50: unit not given beside the values; settings: **Imbach J-L. et al. 1994; cited from earlier work

SMILES: O=c1ccn([C@H]2CC[C@@H](CO)O2)c(=O)[nH]1 [ddU, 2′,3′-dideoxyuridine]
- CC50 (CEM-T4 cells [1]): > 250000 nM
- EC50 (HIV [2]): 48000 nM
- SI50 (HIV [2]): >5.2*

- EC90 (HIV [4]; CEM-T4 cells, p24 after 8 days): 6 nM
SMILES: Cc1cn([C@H]2C[C@H](N=[N+]=[N-])[C@@H](COP(=O)(O)Nc3ccncc3)O2)c(=O)[nH]c1=O [(XVITc)]
- CC50 (CEM-T4 cells [3]): > 190000 nM
- CC90 (CEM-T4 cells [3]): > 190000 nM
- SI50 (HIV [4]): >>19000

- EC50 (HIV [4]; Human immunodeficiency virus 1, 192 h, CEM-T4 cells, 50% inhibition of HIV replication, p24 after 8 days): 1.1 nM
- EC90 (HIV [4]; Human immunodeficiency virus 1, 192 h, CEM-T4 cells, p24 after 8 days): 16 nM
SMILES: Cc1cn([C@H]2C[C@H](N=[N+]=[N-])[C@@H](CO)O2)c(=O)[nH]c1=O [AZT, 3′-azido-3′-deoxythymidine]
- CC50 at 7 days [5]: 60000 nM
- SI50 (HIV [4]): 6000

SMILES: OC[C@@H]1CC[C@H](n2cnc3c(O)ncnc32)O1 [ddI, 2′,3′-dideoxyinosine]
- EC50 (HIV [6]): 1100 nM
- SI50 (HIV [6]): >>91**

SMILES: Nc1ncnc2c1ncn2[C@H]1CC[C@@H](CO)O1 [ddA, 2′,3′-dideoxyadenosine]
- CC50 (CEM-T4 cells [1]; *Estimated in cells CEM-T4, Baba M. et al. 1987): > 250000 nM
- EC50 (HIV [2]): 2500 nM
- SI50 (HIV [2]): >>100*
